≈ marks a conversion by molar mass, not a printed value. Calls of active or inactive are those of the source. No cut-off for these calls is given here.
Key:
Mycobacterium kansasii [1] = assay: Antimycobacterial activity against drug resistant Mycobacterium kansasii 6509/96 assessed as minimal inhibitory concentration required for complete inhibition of mycobacterial growth incubated for 7 days; format: functional; settings: 6509/96, 168 h, time 7 day
Mycobacterium avium [2] = assay: Antimycobacterial activity against drug resistant Mycobacterium avium 330/88 assessed as inhibition of mycobacterial growth at 125 uM incubated for 14 days; format: functional, organism-based; settings: time 14.0 day
[3] = system: Mycobacterium tuberculosis; assay: Antimycobacterial activity against drug susceptible Mycobacterium tuberculosis H37Rv assessed as minimal inhibitory concentration required for complete inhibition of mycobacterial growth incubated for 14 days; format: functional; settings: 336 h, time 14 day
Mycobacterium kansasii [4] = assay: Antimycobacterial activity against drug resistant Mycobacterium kansasii 235/80 assessed as minimal inhibitory concentration required for complete inhibition of mycobacterial growth incubated for 7 days; format: functional; settings: 235/80, 168 h, time 7 day
HepG2 [5] = assay: Cytotoxicity against human HepG2 cells assessed as reduction in cell viability incubated overnight followed by compound washout by MTT assay; format: cell-based
Mycobacterium kansasii [6] = assay: Antimycobacterial activity against drug resistant Mycobacterium kansasii 235/80 assessed as inhibition of mycobacterial growth at 62.5 uM incubated for 21 days; format: functional, organism-based; settings: time 21.0 day
Mycobacterium kansasii [7] = assay: Antimycobacterial activity against drug resistant Mycobacterium kansasii 235/80 assessed as inhibition of mycobacterial growth at 62.5 uM incubated for 14 days; format: functional, organism-based; settings: time 14.0 day
[8] = Selectivity index, ratio of CC50 for cytotoxicity against human HepG2 cells to MIC for antimycobacterial activity against drug susceptible Mycobacterium […]; format: toxicity, cell-based; settings: read-out: Selectivity Index
Mycobacterium kansasii [9] = assay: Antimycobacterial activity against drug resistant Mycobacterium kansasii 6509/96 assessed as minimal inhibitory concentration required for complete inhibition of mycobacterial growth incubated for 14 days; format: functional; settings: 6509/96, 336 h, time 14 day
Mycobacterium avium [10] = assay: Antimycobacterial activity against drug resistant Mycobacterium avium 330/88 assessed as inhibition of mycobacterial growth at 125 uM incubated for 21 days; format: functional, organism-based; settings: time 21.0 day
Mycobacterium kansasii [11] = assay: Antimycobacterial activity against drug resistant Mycobacterium kansasii 6509/96 assessed as minimal inhibitory concentration required for complete inhibition of mycobacterial growth incubated for 21 days; format: functional; settings: 6509/96, 504 h, time 21 day
[12] = system: Mycobacterium tuberculosis; assay: Antimycobacterial activity against drug susceptible Mycobacterium tuberculosis H37Rv assessed as minimal inhibitory concentration required for complete inhibition of mycobacterial growth incubated for 21 days; format: functional; settings: 504 h, time 21 day
HepG2 [13] = assay: Cytostatic activity in human HepG2 cells assessed as reduction in cell viability incubated overnight followed by compound washout and further incubated for 72 hrs in medium containing serum by MTT assay; format: functional, cell-based; settings: HepG2, 72 h
[14] = Selectivity index, ratio of CC50 for cytotoxicity against human HepG2 cells to MIC for antimycobacterial activity against drug susceptible Mycobacterium tuberculosis H37Rv; format: toxicity, cell-based; settings: read-out: Selectivity Index

## C/C(=N\NC(=O)c1ccncc1)C(=O)Nc1cccc(Cl)c1
Mycobacterium kansasii [1]
  MIC: 2 µM (≈ 0.633 µg/mL)
Mycobacterium avium [2]
  Activity: inactive
[3]
  MIC: 0.125 µM (≈ 0.0396 µg/mL)
Mycobacterium kansasii [4]
  MIC: 32 µM (≈ 10.1 µg/mL)
HepG2 [5]
  IC50: > 50 µM
Mycobacterium kansasii [6]
  Activity: inactive
Mycobacterium kansasii [7]
  Activity: inactive
[8]
  selectivity ratio: > 12.5
Mycobacterium kansasii [9]
  MIC: 2 µM (≈ 0.633 µg/mL)
Mycobacterium avium [10]
  Activity: inactive
Mycobacterium kansasii [11]
  MIC: 4 µM (≈ 1.27 µg/mL)
[12]
  MIC: 0.125 µM (≈ 0.0396 µg/mL)
HepG2 [13]
  IC50: > 50 µM
[14]
  selectivity ratio: > 400

Reference: ChEMBL document CHEMBL4831492, “Design and synthesis of 2-(2-isonicotinoylhydrazineylidene)propanamides as InhA inhibitors with high antitubercular activity” (Eur J Med Chem, 2021)
